Results on two molecules are retold here after ChEMBL document CHEMBL1146212, “Glyceraldehyde 3-phosphate dehydrogenase is a cellular target of the insulin mimic demethylasterriquinone B1” (J Med Chem, 2007).

Assay [1] deals with Glyceraldehyde-3-phosphate dehydrogenase (Homo sapiens, UniProt P04406). The assay can be described thus: Binding affinity to GAPDH in human erythrocytes. It is filed as cell-based.
Assay [2] deals with Glyceraldehyde-3-phosphate dehydrogenase (Oryctolagus cuniculus, UniProt P46406). Nature of the assay: Binding affinity to GAPDH in rabbit muscle.
Chain of Glyceraldehyde-3-phosphate dehydrogenase (Oryctolagus cuniculus, UniProt P46406) (P46406 whole entry): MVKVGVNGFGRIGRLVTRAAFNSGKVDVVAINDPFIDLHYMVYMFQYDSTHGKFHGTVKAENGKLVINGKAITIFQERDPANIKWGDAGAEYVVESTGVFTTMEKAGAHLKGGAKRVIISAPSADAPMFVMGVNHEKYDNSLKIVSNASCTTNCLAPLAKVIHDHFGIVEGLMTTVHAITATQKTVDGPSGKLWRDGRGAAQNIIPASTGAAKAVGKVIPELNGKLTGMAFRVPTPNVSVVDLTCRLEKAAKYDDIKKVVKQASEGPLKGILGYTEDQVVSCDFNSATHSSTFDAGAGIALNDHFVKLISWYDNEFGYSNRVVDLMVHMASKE

Chain of Glyceraldehyde-3-phosphate dehydrogenase (Homo sapiens, UniProt P04406) (P04406 whole entry): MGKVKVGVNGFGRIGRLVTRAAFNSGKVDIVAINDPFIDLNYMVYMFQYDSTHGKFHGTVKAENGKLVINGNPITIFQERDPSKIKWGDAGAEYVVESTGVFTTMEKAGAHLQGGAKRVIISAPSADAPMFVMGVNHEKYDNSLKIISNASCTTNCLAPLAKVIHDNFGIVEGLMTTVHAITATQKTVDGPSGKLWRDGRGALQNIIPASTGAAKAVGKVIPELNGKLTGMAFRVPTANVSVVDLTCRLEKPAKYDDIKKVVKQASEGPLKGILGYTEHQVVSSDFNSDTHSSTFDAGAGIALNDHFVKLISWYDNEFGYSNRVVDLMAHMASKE

A word on the Kd: it is the equilibrium constant for the complex coming apart. A low value points to tighter binding. The molecule `CC(C)=CCc1cccc2c(C3=C(O)C(=O)C(c4c(C)[nH]c5ccc(NC(=O)CCCCCNC(=O)CCCCC6SCC7NC(=O)NC76)cc45)=C(O)C3=O)c[nH]c12` (stereo not drawn) showed a Kd in assay [1] of 7.5 µM.
The term IC50 denotes the concentration needed to halve the response being measured. High values mean weaker potency in that assay, low ones greater potency in that assay. Regarding `C=CC(C)(C)c1[nH]c2ccccc2c1C1=C(O)C(O)=C(c2c[nH]c3c(CC=C(C)C)cccc23)C(=O)C1=O`, the IC50 in assay [2] was 15 µM. Further, the dissociation constant (Kd) in assay [1] was 7.2 µM.
